{
  "source": "patent US20030113362A1",
  "about": "“Unique ascorbic acid derivatives with essential amino acids, nonessential amino acid and amino acids that do not occur in protein: the process for their preparation and use in research, medicine, physiology, pharmacology, nutrition, pharmaceuticals, and for cosmetic, commercial and industrial …” (priority 2001, published 2003)",
  "origin": "cited, not measured here",
  "conditions": "compared with ascorbic acid; test conditions not given",
  "data": [
    {"smiles": "O=C1O[C@H]([C@@H](O)CO)C(O)=C1OS(=O)(=O)O", "note": "[L-ascorbate 2-sulphate]", "values": [
      {"measurement": "stability, times more stable than ascorbic acid", "value": 20, "unit": "times"}
    ]}
  ]
}
